Data published in patent US20200361871A1 (Enterprise Therapeutics Ltd., priority 2018, published 2020).

Target: human TMEM16A (TMEM16Aabc variant) (Homo sapiens, UniProt Q5XXA6, DEL476-501, form not given)
Assay: Automated whole-cell patch clamp (Qpatch) TMEM16A potentiator assay in FRT cells stably expressing human TMEM16A
Type: cell-based
Settings: for % Potentiation @ 3.33 μM Avg: 3.33 μM solution of test compound, percentage increase of baseline TMEM16A current; for EC50: calculated EC50, Qpatch TMEM16A current at +70 mV
From the text: FIG. 1 is an example trace from a whole-cell patch clamp (Qpatch) TMEM16A potentiator assay as used in Biological Example 95 and illustrates the methodology used in the assay. In FIG. 1: S is Saline; V is Vehicle; #1 is Test Compound concentration #1; #2 is Test Compound concentration 2; #3 is Test Compound concentration 3; #4 is Test Compound concentration 4; #5 is Test Compound concentration #5; and R is Reference. The arrow in column V represents the baseline current, IBL. The arrows in each of the columns #1, #2, #3, #4, #5 and R represent I#[1], I#[2], I#[3], I#[4], I#[5] and I[Ref], which are the peak currents during the incubation periods for test compounds concentrations #1 to #5 and the Reference.
Fisher rat thyroid (FRT) cells stably expressing human TMEM16A (TMEM16Aabc variant; Dr Luis Galietta, Insituto Giannina, Italy) were cultured in T-75 flasks in Hams F-12 media with Coon's modification (Sigma) supplemented with 10% (v/v) foetal bovine serum, penicillin-streptomycin (10,000 U/mL/10000 μg/mL), G-418 (750 μg/mL), L-glutamine (2 mM) and sodium bicarbonate solution (7.5% v/v). At ˜90% confluence cells were harvested for experiments by detachment with a 2:1 (v/v) mixture of Detachin (BMS Biotechnology) and 0.25% (w/v) trypsin-EDTA. Cells were diluted to a density of 3.5-4.5×10^6 cells/mL with media consisting of CHO-S-SFM II (Sigma), 25 mM HEPES (Sigma) and Soy bean trypsin inhibitor (Sigma).
FRT-TMEM16A cells were whole-cell patch clamped using an automated planar patch clamp system (Qpatch, Sophion). Briefly, once high resistance (GOhm) seals were established between the cells and the planar recording array the patch was ruptured using suction pulses to establish the whole-cell recording configuration of the patch clamp technique. The assay employed the following solutions (all reagents Sigma): Intracellular solution (mM): N-methyl-D-glucamine 130, CaCl2 18.2, MgCl2 1, HEPES 10, EGTA 10, BAPTA 20, Mg-ATP 2, pH 7.25, 325 mOsm with sucrose.
Extracellular solution (mM): N-methyl-D-glucamine 130, CaCl2 2, MgCl2 1, HEPES 10, pH 7.3, 320 mOsm with sucrose.
The intracellular solution buffers intracellular calcium at levels required to give ˜20% activation of the maximal TMEM16A mediated current (EC20 for calcium ions). Cells were voltage clamped at a holding potential of −70 mV and a combined voltage step (to +70 mV)/ramp (−90 my to +90 mV) was applied at 0.05 Hz. After a period of current stabilisation test compounds, solubilised in 100% (v/v) DMSO and subsequently diluted into extracellular solution, were applied to generate a cumulative concentration response curve. Each concentration of test compound was incubated for 5 minutes before addition of the next concentration. After the final concentration was tested a supramaximal concentration of either a known active positive modulator or the TMEM16A inhibitor, CaCCinhA01 (Del La Fuente et al, 2008) was added to define the upper and lower limits of the assay.
Compound activity was quantified by measuring the increase in current upon compound addition and expressing this as a percentage increase of baseline TMEM16A current level. Percentage increases in current were determined for each concentration and the data plotted as a function of concentration using either the Qpatch software or Graphpad Prism v6.05 providing the concentration which gave 50% of its maximal effect (EC50) and maximum efficacy (percentage of baseline increase).
In FIG. 1, IBL equals baseline current, I[#1] equals the peak current during test compound concentration 1 incubation period and so on.
Peak TMEM16A current at +70 mV was plotted as a function of time over the assay period. Baseline current (IBL) was measured after a period of stabilisation. The increase in current for each compound addition was determined by taking the peak current during the incubation period and subtracting the current from the previous recording period and then expressing this as a percentage of the baseline current. […]

human TMEM16A (TMEM16Aabc variant), sequence (Q5XXA6 with tags, fused parts or gaps DEL476-501): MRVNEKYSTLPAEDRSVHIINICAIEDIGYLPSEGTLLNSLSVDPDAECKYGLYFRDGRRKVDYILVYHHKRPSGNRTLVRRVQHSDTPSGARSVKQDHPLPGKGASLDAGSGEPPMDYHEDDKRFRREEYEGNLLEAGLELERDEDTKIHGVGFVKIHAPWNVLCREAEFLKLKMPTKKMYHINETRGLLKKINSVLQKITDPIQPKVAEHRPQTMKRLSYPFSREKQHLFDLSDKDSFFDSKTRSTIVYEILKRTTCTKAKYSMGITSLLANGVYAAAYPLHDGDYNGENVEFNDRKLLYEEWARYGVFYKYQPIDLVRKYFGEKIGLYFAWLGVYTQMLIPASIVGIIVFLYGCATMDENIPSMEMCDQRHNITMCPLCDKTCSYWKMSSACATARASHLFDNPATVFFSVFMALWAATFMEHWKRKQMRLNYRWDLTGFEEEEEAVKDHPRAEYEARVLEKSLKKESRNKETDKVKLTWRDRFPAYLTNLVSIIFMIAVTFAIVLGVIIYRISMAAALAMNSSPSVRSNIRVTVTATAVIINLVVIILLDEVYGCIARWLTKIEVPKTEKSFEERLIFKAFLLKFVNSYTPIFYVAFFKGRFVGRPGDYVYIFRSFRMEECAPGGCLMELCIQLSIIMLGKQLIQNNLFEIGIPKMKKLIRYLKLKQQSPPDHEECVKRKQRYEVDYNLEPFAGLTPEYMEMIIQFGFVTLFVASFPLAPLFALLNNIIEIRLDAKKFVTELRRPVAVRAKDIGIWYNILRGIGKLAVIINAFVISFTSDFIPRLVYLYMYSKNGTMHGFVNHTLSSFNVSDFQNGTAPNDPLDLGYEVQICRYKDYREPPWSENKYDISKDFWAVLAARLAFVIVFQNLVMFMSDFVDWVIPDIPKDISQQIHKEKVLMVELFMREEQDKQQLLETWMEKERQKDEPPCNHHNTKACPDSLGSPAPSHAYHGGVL

SMILES	% Potentiation @ 3.33 μM Avg [%]	EC50 [nM]
CC(C)(C)c1ccc(O)c(CC(=O)Nc2ccnc(C(=O)NC3(C#N)CCC3)c2)c1 [Example 3.5a, 4-[[2-(5-tert-Butyl-2-hydroxy-phenyl)acetyl]amino]-N-(1-cyanocyclobutyl)pyridine-2-carboxamide]	311	500
CC(C)(C)NC(=O)c1cc(NC(=O)Cc2cc(C(F)(F)F)ccc2O)ccn1 [Example 3.5b, N-tert-Butyl-4-[[2-[2-hydroxy-5-(trifluoromethyl)phenyl]acetyl]amino]pyridine-2-carboxamide]	150	200
CC1(NC(=O)c2cc(NC(=O)Cc3cc(C(C)(C)C)ccc3O)ccn2)CCC1 [Example 3.6a, 4-[[2-(5-tert-Butyl-2-hydroxy-phenyl)acetyl]amino]-N-(1-methylcyclobutyl)pyridine-2-carboxamide]	546	370
CC(C)(C)NC(=O)c1cc(NC(=O)Cc2ccc(Cl)cc2O)ccn1 [Example 3.6b, N-tert-Butyl-4-[[2-(4-chloro-2-hydroxy-phenyl)acetyl]amino]pyridine-2-carboxamide]	205	120
CC(C)(C)NC(=O)c1cc(NC(=O)Cc2c(O)c(Br)cc(F)c2Br)ccn1 [Example 3.7a, N-tert-butyl-4-[2-(2,5-dibromo-3-fluoro-6-hydroxyphenyl)acetamido]pyridine-2-carboxamide]	135	280
CC(C)(C)NC(=O)c1cc(NC(=O)Cc2ccc(C(F)(F)F)cc2O)ccn1 [Example 3.7b, N-tert-Butyl-4-[[2-[2-hydroxy-4-(trifluoromethyl)phenyl]acetyl]amino]pyridine-2-carboxamide]	160	180
COc1ccc(O)c(CC(=O)Nc2ccnc(C(=O)NC(C)(C)C)c2)c1 [Example 3.8b, N-tert-Butyl-4-[[2-(2-hydroxy-5-methoxy-phenyl)acetyl]amino]pyridine-2-carboxamide]	203	300
CC(C)(C)NC(=O)c1cc(NC(=O)C2CCc3ccc(O)cc32)ccn1 (stereo not shown) [Example 3.9b, N-tert-Butyl-4-[(6-hydroxyindane-1-carbonyl)amino]pyridine-2-carboxamide]	144	960
CC(C)(C)NC(=O)c1cc(NC(=O)C2CCc3cccc(O)c32)ccn1 (stereo not shown) [Example 3.10b, N-tert-Butyl-4-[(7-hydroxyindane-1-carbonyl)amino]pyridine-2-carboxamide]	159	460
CC(C)(C)NC(=O)c1cc(NC(=O)Cc2c(O)c(Br)cc(Cl)c2Br)ccn1 [Example 3.11b, N-tert-Butyl-4-[[2-(2,5-dibromo-3-chloro-6-hydroxy-phenyl)acetyl]amino]pyridine-2-carboxamide]	168	410
CC(C)(C)NC(=O)c1cc(NC(=O)Cc2cccc(O)c2)ccn1 [Example 3.12b, N-tert-Butyl-4-[[2-(3-hydroxyphenyl)acetyl]amino]pyridine-2-carboxamide]	143	340
CC(C)(C)NC(=O)c1cc(NC(=O)Cc2cc(O)ccc2F)ccn1 [Example 3.13b, N-tert-butyl-4-[[2-(2-fluoro-5-hydroxy-phenyl)acetyl]amino]pyridine-2-carboxamide]	179	250
CC(C)(C)NC(=O)c1cc(NC(=O)Cc2ccc(Cl)c(O)c2)ccn1 [Example 3.14b, N-tert-Butyl-4-[[2-(4-chloro-3-hydroxy-phenyl)acetyl]amino]pyridine-2-carboxamide]	251	40
CC(C)(C)NC(=O)c1cc(NC(=O)Cc2cccc(O)c2Cl)ccn1 [Example 3.15b, N-tert-Butyl-4-[[2-(2-chloro-3-hydroxy-phenyl)acetyl]amino]pyridine-2-carboxamide]	127	–
CC(C)(C)NC(=O)c1cc(NC(=O)Cc2cc(O)ccc2Cl)ccn1 [Example 3.16b, N-tert-Butyl-4-[[2-(2-chloro-5-hydroxy-phenyl)acetyl]amino]pyridine-2-carboxamide]	167	170
CC(C)(C)NC(=O)c1cc(NC(=O)Cc2cc(O)cc(Cl)c2)ccn1 [Example 3.17b, N-tert-Butyl-4-[[2-(3-chloro-5-hydroxy-phenyl)acetyl]amino]pyridine-2-carboxamide]	227	120
CC(C)(C)NC(=O)c1cccc(NC(=O)Cc2cccc(O)c2)c1 [Example 4, N-tert-Butyl-3-[[2-[3-hydroxyphenyl]acetyl]amino]benzamide]	96	1500
CC(C)(C)NC(=O)c1cccc(NC(=O)Cc2n[nH]c3ccccc23)c1 [Example 4.1, N-tert-Butyl-3-[[2-(1H-indazol-3-yl)acetyl]amino]benzamide]	79	2170
CC(C)(C)NC(=O)c1cccc(NC(=O)Cc2c[nH]c3ccc(F)cc23)c1 [Example 4.2, N-tert-Butyl-3-[[2-(5-fluoro-1H-indol-3-yl)acetyl]amino]benzamide]	116	660
CC(C)(C)NC(=O)c1cccc(NC(=O)Cc2ccccc2O)c1 [Example 4.3, N-tert-Butyl-3-[[2-(2-hydroxyphenyl)acetyl]amino] benzamide]	151	1530
Cc1[nH]c2c(F)cccc2c1CC(=O)Nc1cccc(C(=O)NC(C)(C)C)c1 [Example 4.4, N-tert-Butyl-3-[[2-(7-fluoro-2-methyl-1H-indol-3-yl)acetyl]amino]benzamide]	61	4190
CC(C)(C)NC(=O)c1cccc(NC(=O)Cc2c[nH]c3ccccc23)c1 [Example 4.5, N-tert-Butyl-3-[[2-(1H-indol-3-yl)acetyl]amino]benzamide]	138	700
CC(C)(C)NC(=O)c1cccc(NC(=O)Cc2ccccc2)c1 [Example 4.6, N-tert-Butyl-3-[(2-phenylacetyl)amino]benzamide]	53	3860
COc1cccc(F)c1CC(=O)Nc1cccc(C(=O)NC(C)(C)C)c1 [Example 4.7, N-tert-Butyl-3-[[2-(2-fluoro-6-methoxy-phenyl)acetyl]amino]benzamide]	68	–
COc1ccc(F)c(F)c1CC(=O)Nc1cccc(C(=O)NC(C)(C)C)c1 [Example 4.8, N-tert-Butyl-3-[[2-(2,3-difluoro-6-methoxy-phenyl)acetyl]amino]benzamide]	55	2070
COc1cc(C(F)(F)F)ccc1CC(=O)Nc1cccc(C(=O)NC(C)(C)C)c1 [Example 4.9, N-tert-Butyl-3-[[2-[2-methoxy-4-(trifluoromethyl)phenyl]acetyl]amino]benzamide]	60	4660
CC(C)(C)NC(=O)c1cc(NC(=O)Cc2cccs2)ccn1 [Example 5, N-tert-Butyl-4-[[2-[2-thienyl]acetyl]amino]pyridine-2-carboxamide]	78	800
